The values that follow come from the NIST ThermoML archive (doi:10.1016/j.jct.2007.09.007).

Usually mass density stands for the mass of a sample divided by its volume.

For the series the following is noted: 101.33 kPa, Liquid.

SMILES strings stand for the structures. Numbers after ± are expanded uncertainties.

Take `CC(C)OC(C)C` [diisopropyl ether]: the mass density by setting is: (288.15 K) 728.82 ± 0.94 kg/m3; (293.15 K) 723.67 ± 0.95 kg/m3; (298.15 K) 718.46 ± 0.96 kg/m3; (303.15 K) 713.21 ± 0.97 kg/m3.

Turning to `C1CCOC1` [tetrahydrofuran], the mass density was 892.86 ± 0.33 kg/m3 (288.15 K), 887.52 ± 0.34 kg/m3 (293.15 K), 882.04 ± 0.35 kg/m3 (298.15 K) and 876.54 ± 0.36 kg/m3 (303.15 K).

As to `CC#N` [acetonitrile], the mass density (288.15 K) was 787.38 ± 0.23 kg/m3, the mass density (293.15 K) worked out at 782.01 ± 0.24 kg/m3, the mass density (298.15 K) is listed as 776.62 ± 0.24 kg/m3 and the mass density (303.15 K) is on record as 771.19 ± 0.25 kg/m3.

With `C1COCCO1` [1,4-dioxane], the mass density is, setting by setting: (288.15 K) 1038.78 ± 0.24 kg/m3; (293.15 K) 1033.16 ± 0.23 kg/m3; (298.15 K) 1027.51 ± 0.22 kg/m3; (303.15 K) 1021.84 ± 0.21 kg/m3.
